{
  "source": "patent US20060052362A1",
  "about": "“Skeletal muscle protecting agent” (priority 2003, published 2006)",
  "key": {"[1]": {"system": "Human normal skeletal muscle cells", "assay": "Effect of Test compound 3 on cytotoxicity of HMG-CoA reductase inhibitor (1), drugs added at the same time", "format": "cell-based", "settings": "3 days", "excerpt": "Effect of Test Compound 3 on Cytotoxicity of HMG-CoA Reductase Inhibitor (1)"}, "[2]": {"system": "Human normal skeletal muscle cells", "assay": "Effect of Test compound 3 on cytotoxicity of HMG-CoA reductase inhibitor (2), pretreatment 1 day", "format": "cell-based", "method": "Effect of Test Compound 3 on Cytotoxicity of HMG-CoA Reductase Inhibitor (2)\nThe drug in Treatment 1 was added and after 1 day, the medium was completely removed."}, "[3]": {"system": "Human normal skeletal muscle cells", "settings": "for The number of the live cells (% of Group 1): 3 days"}, "[4]": {"system": "geranylgeraniol (GGOH) content in soleus muscle", "assay": "Increasing effect on geranylgeraniol (GGOH) content in soleus muscle", "format": "in vivo", "settings": "male SD rat, Mean ± SE (N = 4)", "method": "Increasing Effect on Geranylgeraniol (GGOH) Content in Soleus Muscle\nTo 6 week-old male SD rat (4 per group) was orally administered forcedly by means of a stomach sonde a vehicle or Test compounds 1 or 2 at a dose of 10 mL/kg once a day for 14 days so as to be in an amount of 40 or 200 mg/kg. In the next morning of the 14th administration, the rat was killed under ether anesthesia. Immediately, the soleus muscle was collected and frozen on a dry ice, and then kept at −80° C. Later, to the muscle homogenate was added phosphatase for dephosphorylation, and then the concentration of geranylgeraniol (sum total of geranylgeranyl pyrophosphate and geranylgeraniol) in the muscle was determined with LC/MS/MS (Table 1)."}, "squalene synthase": {"target": "T1, squalene synthase (Homo sapiens, UniProt P37268)", "T1 sequence (P37268 1-417)": "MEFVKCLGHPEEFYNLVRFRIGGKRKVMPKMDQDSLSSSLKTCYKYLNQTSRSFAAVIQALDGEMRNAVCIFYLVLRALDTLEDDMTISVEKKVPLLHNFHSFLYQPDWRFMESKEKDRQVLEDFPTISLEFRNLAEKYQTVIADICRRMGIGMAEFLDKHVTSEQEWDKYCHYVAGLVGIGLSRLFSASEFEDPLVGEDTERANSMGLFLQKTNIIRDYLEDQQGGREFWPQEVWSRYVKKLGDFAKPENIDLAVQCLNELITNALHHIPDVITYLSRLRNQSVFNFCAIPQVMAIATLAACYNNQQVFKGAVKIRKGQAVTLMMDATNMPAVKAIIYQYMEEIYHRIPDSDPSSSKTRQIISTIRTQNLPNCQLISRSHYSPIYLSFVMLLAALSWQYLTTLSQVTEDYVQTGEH", "settings": "described in Test 1 of JP-A No. 9-136880; cited from earlier work"}, "[5]": {"settings": "single drug 10 μM, other treatment vehicle, Mean ± SE (N = 3)"}, "[6]": {"settings": "40 mg/kg oral once a day for 14 days"}, "[7]": {"settings": "200 mg/kg oral once a day for 14 days"}},
  "note": "Like-named read-outs stand apart in the source and are kept apart here.",
  "data": [
    {"molecule": "CC(C)c1c(C(=O)Nc2ccccc2)c(-c2ccccc2)c(-c2ccc(F)cc2)n1CC[C@@H](O)C[C@@H](O)CC(=O)O", "note": "[Atorvastatin, atorvastatin, reference compound]", "values": [
      {"measurement": "The number of the live cells (% of Group 1)", "setting": "[1]; Atorvastatin 100 μM alone (Treatment 1 vehicle)", "value": "34 ± 0.6 % of Group 1"},
      {"measurement": "The number of the live cells (% of Group 1)", "setting": "[2]; vehicle 1 day, then Atorvastatin 10 μM 3 days", "value": "57 ± 1.1 % of Group 1"},
      {"measurement": "The number of the live cells (% of Group 1)", "setting": "[2]; vehicle 1 day, then Atorvastatin 100 μM 3 days", "value": "35 ± 1.9 % of Group 1"},
      {"measurement": "The number of the live cells (% of Group 1)", "setting": "[3]; [5]", "value": "52.0 ± 0.9 % of Group 1"}
    ]},
    {"molecule": "CC(C)=CCC/C(C)=C/CC/C(C)=C/CC/C(C)=C/COP(=O)(O)OP(=O)(O)O", "note": "[GGPP, geranylgeranyl pyrophosphate]", "values": [
      {"measurement": "The number of the live cells (% of Group 1)", "setting": "[3]; GGPP 10 μM added together with Atorvastatin 10 μM", "value": "67.8 ± 1.3$ % of Group 1"},
      {"measurement": "The number of the live cells (% of Group 1)", "setting": "[3]; GGPP 10 μM added together with Simvastatin 10 μM", "value": "72.3 ± 1.6 % of Group 1"},
      {"measurement": "The number of the live cells (% of Group 1)", "setting": "[3]; [5]", "value": "93.5 ± 0.8 % of Group 1"},
      {"measurement": "activity reducing cytotoxicity in skeletal muscle cells (in words)", "setting": "[3]; summary of Table 2", "value": "had an activity reducing cytotoxicity in skeletal muscle cells"}
    ]},
    {"molecule": "CCC(C)(C)C(=O)O[C@H]1C[C@@H](C)C=C2C=C[C@H](C)[C@H](CC[C@@H]3C[C@@H](O)CC(=O)O3)[C@H]21", "note": "[Simvastatin, simvastatin]", "values": [
      {"measurement": "The number of the live cells (% of Group 1)", "setting": "[3]; [5]", "value": "46.2 ± 1.5 % of Group 1"}
    ]},
    {"molecule": "COc1cccc([C@H]2O[C@H](CC(=O)N3CCC(CC(=O)O)CC3)C(=O)N(CC(C)(C)COC(C)=O)c3ccc(Cl)cc32)c1OC", "note": "[Test compound 1, N-[[(3R,5S)-1-(3-acetoxy-2,2-dimethylpropyl)-7-chloro-5-(2,3-dimethoxyphenyl)-2-oxo-1,2,3,5-tetrahydro-4,1-benzoxazepin-3-yl]acetyl]piperidine-4-acetic acid]", "values": [
      {"measurement": "GGOH content in the soleus muscle", "setting": "[4]; [6]", "value": "0.224 ± 0.017", "unit": "μg/g soleus muscle"},
      {"measurement": "GGOH content in the soleus muscle", "setting": "[4]; [7]", "value": "0.255 ± 0.027", "unit": "μg/g soleus muscle"}
    ]},
    {"molecule": "COc1cccc([C@H]2O[C@H](CC(=O)Nc3cccc(CCC(=O)O)c3)C(=O)N(CC(C)(C)CO)c3ccc(Cl)cc32)c1OC", "note": "[Test compound 2, 3-[3-[[[(3R,5S)-7-chloro-5-(2,3-dimethoxyphenyl)-1-(3-hydroxy-2,2-dimethylpropyl)-2-oxo-1,2,3,5-tetrahydro-4,1-benzoxazepin-3-yl]acetyl]amino]phenyl]propionic acid]", "values": [
      {"measurement": "GGOH content in the soleus muscle", "setting": "[4]; [6]", "value": "0.225 ± 0.019", "unit": "μg/g soleus muscle"},
      {"measurement": "GGOH content in the soleus muscle", "setting": "[4]; [7]", "value": "0.255 ± 0.006", "unit": "μg/g soleus muscle"},
      {"measurement": "inhibitory activity against squalene synthase", "setting": "squalene synthase", "value": "has inhibitory activity against squalene synthase"}
    ]},
    {"molecule": "COc1cccc([C@H]2O[C@H](CC(=O)N3CCC(CC(=O)O)CC3)C(=O)N(CC(C)(C)CO)c3ccc(Cl)cc32)c1OC", "note": "[Test compound 3, N-[[(3R,5S)-7-chloro-5-(2,3-dimethoxyphenyl)-1-(3-hydroxy-2,2-dimethylpropyl)-2-oxo-1,2,3,5-tetrahydro-4,1-benzoxazepin-3-yl]acetyl]piperidine-4-acetic acid]", "values": [
      {"measurement": "The number of the live cells (% of Group 1)", "setting": "[1]; Test compound 3 10 μM added at the same time as Atorvastatin 100 μM", "value": "42 ± 0.5 % of Group 1"},
      {"measurement": "The number of the live cells (% of Group 1)", "setting": "[1]; Test compound 3 10 μM alone (Treatment 2 vehicle), Mean ± SE (N = 3)", "value": "96 ± 1.2 % of Group 1"},
      {"measurement": "The number of the live cells (% of Group 1)", "setting": "[2]; Test compound 3 10 μM for 1 day, medium removed, then Atorvastatin 10 μM 3 days", "value": "76 ± 1.8 % of Group 1"},
      {"measurement": "The number of the live cells (% of Group 1)", "setting": "[2]; Test compound 3 10 μM for 1 day, medium removed, then Atorvastatin 100 μM 3 days", "value": "45 ± 0.2 % of Group 1"},
      {"measurement": "The number of the live cells (% of Group 1)", "setting": "[2]; Test compound 3 10 μM for 1 day, medium removed, then vehicle 3 days, Mean ± SE (N = 3)", "value": "98 ± 2.3 % of Group 1"},
      {"measurement": "inhibitory activity against squalene synthase", "setting": "squalene synthase", "value": "has inhibitory activity against squalene synthase"}
    ]}
  ]
}
